Results on one cell line are retold here after the supplement of paper PMC10307832.

What all share (assay): relative viability (nuclei count vs DMSO), 5 days (fraction); higher = more cells survive
Compound in the assay “MK-8033 + Linsitinib”: Cn1cc(-c2cnc3ccc4ccc(CS(=O)(=O)NCc5ccccn5)cc4c(=O)c3c2)cn1 [MK-8033] + C[C@]1(O)C[C@@H](c2nc(-c3ccc4ccc(-c5ccccc5)nc4c3)c3c(N)nccn32)C1 [Linsitinib] (partner 1 µM)
In outline: (§1)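 A single step with final 0.05% Triton X-100, 1% formaldehyde and 1 ug/ml Hoechst fixed the cells and stained nuclei 5 days after treatment. Lung cancer cell lines in 1536-well plates had been treated by pin tool the day after seeding with one drug alone or a fixed anchor-drug dose plus five library-drug doses (not always all listed) in √10 steps, and nuclei were counted on 4× images. Relative viability is the ratio of nuclei in treated wells to nuclei in vehicle wells, taken as the median of duplicate plates.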

Compound in the assay “RU-SKI 43 + Alpelisib”: CC[C@@H](C)CNCC(=O)N1CCC2=C([C@@H]1COC3=CC=CC(=C3)C)C=CS2 [RU-SKI 43] + Cc1nc(NC(=O)N2CCC[C@H]2C(N)=O)sc1-c1ccnc(C(C)(C)C(F)(F)F)c1 [Alpelisib] (partner 2 µM)
In outline:
as §1

Compound in the assay “RU-SKI 43 + Pemetrexed”: CC[C@@H](C)CNCC(=O)N1CCC2=C([C@@H]1COC3=CC=CC(=C3)C)C=CS2 [RU-SKI 43] + Nc1nc2[nH]cc(CCc3ccc(C(=O)N[C@@H](CCC(=O)O)C(=O)O)cc3)c2c(=O)[nH]1 [Pemetrexed] (partner 0.2 µM)
Put shortly:
as §1

Compound in the assay “MK-8033 + Pictilisib”: Cn1cc(-c2cnc3ccc4ccc(CS(=O)(=O)NCc5ccccn5)cc4c(=O)c3c2)cn1 [MK-8033] + CS(=O)(=O)N1CCN(Cc2cc3nc(-c4cccc5[nH]ncc45)nc(N4CCOCC4)c3s2)CC1 [Pictilisib] (partner 1 µM)
Put shortly:
as §1

As for UMC-11, the relative viability with MK-8033 + Linsitinib (first compound 0.02 µM) was 0.973; in the assay with MK-8033 + Linsitinib (first compound 0.06325 µM), 0.739; with MK-8033 + Linsitinib (first compound 0.2 µM), 0.974; in the assay with MK-8033 + Linsitinib (first compound 0.6325 µM) it was 0.969; with MK-8033 + Linsitinib (first compound 2 µM), 0.979; in the assay with RU-SKI 43 + Alpelisib (first compound 0.1 µM) it was 1.06. The relative viability stood at 1.18 in the assay with RU-SKI 43 + Alpelisib (first compound 0.3162 µM); 1.16 with RU-SKI 43 + Alpelisib (first compound 1 µM); 1.04 with RU-SKI 43 + Alpelisib (first compound 3.162 µM); 0.901 in the assay with RU-SKI 43 + Alpelisib (first compound 10 µM); 0.871 with RU-SKI 43 + Pemetrexed (first compound 0.1 µM); 0.951 with RU-SKI 43 + Pemetrexed (first compound 0.3162 µM). The relative viability with RU-SKI 43 + Pemetrexed (first compound 1 µM) amounted to 0.91; in the assay with RU-SKI 43 + Pemetrexed (first compound 3.162 µM) it was 0.824; with RU-SKI 43 + Pemetrexed (first compound 10 µM), 0.837; with MK-8033 + Pictilisib (first compound 0.02 µM) it was 0.746; in the assay with MK-8033 + Pictilisib (first compound 0.06325 µM), 0.511; with MK-8033 + Pictilisib (first compound 0.2 µM), 0.804. Also, the relative viability in the assay with MK-8033 + Pictilisib (first compound 0.6325 µM) came to 0.932; with MK-8033 + Pictilisib (first compound 2 µM), 0.699.
